Measurements taken from patent US11220503B2, “Phthalazine derivatives, preparation method, pharmaceutical composition and usage thereof” (Shanghai SIMR Biotech Co., Ltd., priority 2015, dated 2022).
Where two headings read alike, the source gives them in different places.

Target: T1, α5β3γ2 receptor (Homo sapiens, UniProt P18507+P31644)
T1 construct: expressed in transfected cells; host or cells: HEK-293 (stably transfected)
Test: Cell level screening: whole cell patch clamp, inverse agonist efficacy
Type: cell-based
Details: for inhibition at 0.001 µM: Con. 1 nM; for inhibition at 0.01 µM: Con. 10 nM; for inhibition at 0.05 µM: Con. 50 nM; for inhibition at 1 µM: Con. 1000 nM; for inverse agonism efficacy of the compound/α5IA inverse agonism efficacy: ratio to α5IA, compound 100 nM
Description: The inventors used electrophysiological methods to assay the inverse agonist efficacy of the substance to be tested. The detailed procedures are as follows: (1) Different subunits of GABAA receptors were expressed in human embryonic kidney cells 293 (HEK293). The cells were cultured in a culture medium and used as a cell model for screening potential analgesics. The α, β and γ subunits are necessary to form complete functional GABAA receptors. In this example, the inventor has established the following cell model: (a) α5 subunit (protein sequence is GenBank accession number: NP_001158509), β3 subunit (protein sequence is GenBank accession number: NP_068712) and γ2 subunit (protein sequence is GenBank accession number: NP_944494) were expressed in HEK-293 cell lines at the same time, which formed the complete functional GABAA receptors. (2) Cells were stably transfected HEK-293 cells expressing α5β3γ2 receptor, which were labeled by green fluorescent protein (GFP). Cells were grown in 10 cm dishes. The cells were passaged after reaching 80-90% confluence. During passaging, the culture medium was removed and discarded, 3 mL DMEM medium (Gibco™) was added to the dishes, the dishes were shaken slightly, and DMEM was removed and discarded. 3 mL Trypsin (Trypsin-EDTA 0.05%, Gibco™) was added and cells were digested at 37° C. for 3 minutes. Then 3 mL complete growth medium (DMEM+10% horse serum (Gibco™)) was added and the cells at the bottom of the culture dishes were dispersed. The cell suspension were transferred to a 15 mL centrifugal tube (Corning®) and then centrifuged at 200 g for 3 minutes. The supernatant was discarded, 4 mL complete growth medium was added, and the cells were resuspended by gently blowing. The cell suspension was diluted by 1:5 or 1:10 for subculturing. The cell suspension was diluted by 1:12 for electrophysiology experiment, which are added to the 24 well plate (Corning®) which has a glass slide pre-treated with poly-D-lysine. The cells were adhered to the slide before the experiment was conducted. The cells were maintained in culture for no more than 24 hours before use. (3) Compound concentration: for screening, all compounds were diluted to a final concentration of 100 nM. GABA was diluted at the concentration of 0.05-0.1 μM. The compounds were at the concentration of 1 nM, 10 nM, 50 nM, 100 nM and 1000 nM in dose-inverse agonism efficacy (%) experiment. The whole cell patch clamp technique was used in electrophysiology experiments. The extracellular solution (ECS) contained: 150 mM NaCl, 5 mM KCl, 2.5 mM CaCl2, 1 mM MgCl2, 10 mM HEPES and 10 mM glucose (pH 7.4); Patch electrodes were filled with an intracellular solution containing: 140 mM KCl, 5 mM EGTA, 10 mM HEPES (adjusted to pH 7.4 with KOH and to 320-330 mOsm with water). The currents were recorded by an EPC-10 amplifier and the PatchMaster software (HEKA). Patch electrodes with a resistance of 5-6 MΩ were pulled from borosilicate glass (Sutter). The diluted compounds were perfused by OCTAFLOWII system. GFP positive and independently growing cells were selected for recording. During recording, the membrane voltage was clamped at −60 mV. During experiment, the cells were firstly perfused with ECS for 20 seconds. When the baseline reached to a stable state, cells were then perfused with GABA solution. Then the current induced by GABA can be detected. After about 20-40 seconds, the current was stable. ECS was switched to compounds solution and the effects of the compounds were detected. At last, the perfusion solution was switched to ECS. The experiment was finished when the post-baseline returned to the pre-baseline before compounds perfusion. Only the data whose pre-baseline and post-baseline are at almost the same level were used for analysis. GABA was diluted at the concentration of 0.05-0.1 μM in ECS. Then, compounds were diluted at the desired concentration in GABA ECS. (4) Currents were analyzed with the PatchMaster (HEKA) software. […]

[1] = HEK293, compound 100 nM, GABA 0.05-0.1 μM, HEK293 α5β3γ2, clamped at −60 mV, (Ipost-Ipre)*100/Ipre, read-out: inverse agonism efficacy(%)
[2] = dose-efficacy, single replicates, read-out: Inverse agonism-Efficacy
[3] = dose-efficacy, Con. 100 nM, single replicates, read-out: Inverse agonism-Efficacy

T1 sequence (P31644 32-462): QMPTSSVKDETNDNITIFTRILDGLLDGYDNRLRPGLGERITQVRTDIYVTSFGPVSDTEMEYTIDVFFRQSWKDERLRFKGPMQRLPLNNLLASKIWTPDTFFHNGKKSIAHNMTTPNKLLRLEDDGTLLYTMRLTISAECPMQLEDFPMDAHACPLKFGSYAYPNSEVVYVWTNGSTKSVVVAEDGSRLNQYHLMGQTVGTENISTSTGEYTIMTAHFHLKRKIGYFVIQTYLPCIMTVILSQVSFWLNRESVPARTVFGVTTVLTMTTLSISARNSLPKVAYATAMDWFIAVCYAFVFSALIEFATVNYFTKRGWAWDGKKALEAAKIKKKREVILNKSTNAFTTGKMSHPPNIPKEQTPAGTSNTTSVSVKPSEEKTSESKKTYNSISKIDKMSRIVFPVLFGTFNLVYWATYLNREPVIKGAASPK
T1 sequence (P28472 26-473 isoform P28472-2 partner limits assumed): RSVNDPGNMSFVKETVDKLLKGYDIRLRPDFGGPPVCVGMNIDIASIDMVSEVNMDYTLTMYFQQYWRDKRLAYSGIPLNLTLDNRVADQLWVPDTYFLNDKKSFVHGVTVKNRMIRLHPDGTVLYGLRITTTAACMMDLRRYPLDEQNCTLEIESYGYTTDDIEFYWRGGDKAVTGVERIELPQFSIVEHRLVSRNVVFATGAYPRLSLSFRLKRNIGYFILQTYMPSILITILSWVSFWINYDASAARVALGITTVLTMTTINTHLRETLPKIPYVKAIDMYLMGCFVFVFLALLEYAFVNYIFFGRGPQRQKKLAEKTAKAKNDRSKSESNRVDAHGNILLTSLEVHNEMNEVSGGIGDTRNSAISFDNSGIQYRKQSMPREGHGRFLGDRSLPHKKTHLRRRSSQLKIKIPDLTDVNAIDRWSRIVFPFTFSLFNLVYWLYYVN
T1 sequence (P18507 40-475): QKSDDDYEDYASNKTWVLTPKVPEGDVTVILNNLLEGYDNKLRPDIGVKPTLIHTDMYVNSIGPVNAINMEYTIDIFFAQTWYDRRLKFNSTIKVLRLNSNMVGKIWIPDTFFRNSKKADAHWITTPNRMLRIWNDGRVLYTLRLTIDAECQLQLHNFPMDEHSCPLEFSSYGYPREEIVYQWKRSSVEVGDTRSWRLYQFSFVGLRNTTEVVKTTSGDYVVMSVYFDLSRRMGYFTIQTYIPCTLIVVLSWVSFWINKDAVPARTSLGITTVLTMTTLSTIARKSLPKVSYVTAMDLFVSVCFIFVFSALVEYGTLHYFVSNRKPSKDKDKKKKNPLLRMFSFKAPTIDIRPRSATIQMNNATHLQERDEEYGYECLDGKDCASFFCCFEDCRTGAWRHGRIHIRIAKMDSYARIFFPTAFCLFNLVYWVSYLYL

Row | SMILES | inhibition at 0.1 µM [1] [%] | inhibition at 0.001 µM [2] [%] | inhibition at 0.01 µM [2] [%] | inhibition at 0.05 µM [2] [%] | inhibition at 0.1 µM [3] [%] | inhibition at 1 µM [2] [%] | inverse agonism efficacy of the compound/α5IA inverse agonism efficacy
1 | Cc1cc(-c2nnc3c4ccccc4c(OCc4cn(C)nn4)nn23)no1 [α5IA, reference compound] | 22.6 | 4.2 | 9.4 | 22.1 | 19 | 20.7 | 
2 | Cn1cc(NC(=O)c2ccc(COc3nn4c(-c5cc(CO)on5)nnc4c4ccccc34)nc2)cn1 [Compound 37, 6-(((3-(5-(hydroxymethyl)isoxazol-3-yl)-[1,2,4]triazolo[3,4-a]phthalazin-6-yl)oxy)methyl)-N-(1-methyl-1H-pyrazol-4-yl)nicotinamide] | 32 |  |  |  |  |  | 1.419
3 | C[C@H](CO)NC(=O)c1ccc(COc2nn3c(-c4ccoc4)nnc3c3ccccc23)nc1 [Compound 59, (R)-6-(((3-(furan-3-yl)-[1,2,4]triazolo[3,4-a]phthalazin-6-yl)oxy)methyl)-N-(1-hydroxypropan-2-yl)nicotinamide] | 39 |  |  |  |  |  | 1.73
4 | C[C@H](CO)NC(=O)c1ccc(COc2nn3c(-c4ccsc4)nnc3c3ccccc23)nc1 [Compound 60, (R)—N-(1-hydroxypropan-2-yl)-6-(((3-(thiophen-3-yl)-[1,2,4]triazolo[3,4-a]phthalazin-6-yl)oxy)methyl)nicotinamide] | 32.6 |  |  |  |  |  | 1.447
5 | Cc1nc(-c2nnc3c4ccccc4c(OCc4ccc(C(=O)N[C@H](C)CO)cc4C#N)nn23)no1 [Compound 31, (R)-3-cyano-N-(1-hydroxypropan-2-yl)-4-(((3-(5-methyl-1,2,4-oxadiazol-3-yl)-[1,2,4]triazolo[3,4-a]phthalazin-6-yl)oxy)methyl)benzamide] | 47.8 |  |  |  |  |  | 2.1179
6 | O=C(NN1CCS(=O)(=O)CC1)c1ccc(COc2nn3c(-c4cc(CO)on4)nnc3c3ccccc23)nc1 [Compound 54, N-(1,1-dioxidothiomorpholino)-6-(((3-(5-(hydroxymethyl)isoxazol-3-yl)-[1,2,4]triazolo[3,4-a]phthalazin-6-yl)oxy)methyl)nicotinamide] | 34 |  |  |  |  |  | 1.508
7 | O=C(NN1CCOCC1)c1ccc(COc2nn3c(-c4cc(CO)on4)nnc3c3ccccc23)nc1 [Compound 33, 6-(((3-(5-(hydroxymethyl)isoxazol-3-yl)-[1,2,4]triazolo[3,4-a]phthalazin-6-yl)oxy)methyl)-N-morpholinonicotinamide] | 33 |  |  |  |  |  | 1.463
8 | CN(C)C(=O)c1ccc(COc2nn3c(-c4cc(CO)on4)nnc3c3ccccc23)nc1 [Compound 45, 6-(((3-(5-(hydroxymethyl)isoxazol-3-yl)-[1,2,4]triazolo[3,4-a]phthalazin-6-yl)oxy)methyl)-N,N-dimethylnicotinamide] | 30.2 |  |  |  |  |  | 1.339
9 | NNC(=O)c1ccc(COc2nn3c(-c4cc(CO)on4)nnc3c3ccccc23)nc1 [Compound 51, 6-(((3-(5-(hydroxymethyl)isoxazol-3-yl)-[1,2,4]triazolo[3,4-a]phthalazin-6-yl)oxy)methyl)nicotinohydrazide] | 30.5 |  |  |  |  |  | 1.351
10 | Cc1cc(-c2nnc3c4ccccc4c(OCc4ccc(C(=O)N(C)C)cn4)nn23)no1 [Compound 06, N,N-dimethyl-6-(((3-(5-methylisoxazol-3-yl)-[1,2,4]triazolo[3,4-a]phthalazin-6-yl)oxy)methyl)nicotinamide] | 36 | 10 | 17 | 23.1 | 26 | 32.3 | 1.596
11 | Cc1nc(COc2nn3c(-c4cc(CO)on4)nnc3c3ccccc23)ccc1C(=O)N[C@H](C)CO [Compound 61, (R)-6-(((3-(5-(hydroxymethyl)isoxazol-3-yl)-[1,2,4]triazolo[3,4-a]phthalazin-6-yl)oxy)methyl)-N-(1-hydroxypropan-2-yl)-2-methylnicotinamide] | 46.2 |  |  |  |  |  | 2.047
12 | O=C(c1ccc(COc2nn3c(-c4cc(CO)on4)nnc3c3ccccc23)nc1)N1CCOCC1 [Compound 41, (6-(((3-(5-(hydroxymethyl)isoxazol-3-yl)-[1,2,4]triazolo[3,4-a]phthalazin-6-yl)oxy)methyl)pyridin-3-yl)(morpholino)methanone] | 42.1 |  |  |  |  |  | 1.867
13 | Cc1cc(-c2nnc3c4ccccc4c(OCc4ccc(C(=O)N[C@H](C)CO)cc4Br)nn23)no1 [Compound 32, (R)-3-bromo-N-(1-hydroxypropan-2-yl)-4-(((3-(5-methylisoxazol-3-yl)-[1,2,4]triazolo[3,4-a]phthalazin-6-yl)oxy)methyl)benzamide] | 39.2 |  |  |  |  |  | 1.739
